This test has as its system PDE4. The test can be described thus: PDE4 Assay Procedure ([3H]-cAMP SPA). The format is biochemical. To be noted: 15 nM [3H]-cAMP, 1 hour at room temperature, SPA beads; compounds tested from 10 μM to 10 pM.

pIC50: −log10 of the molar value.

As usually defined, the pIC50 is −log10 of the IC50, conventionally taken in molar units.

Method: Compounds to be tested were resuspended in DMSO at a stock concentration of 1 mM. […] These dilutions were done in 96-well plates. In some cases, plates containing diluted compounds were frozen before being assayed. In these cases, the plates were thawed at room temperature and stirred for 15 minutes.
Ten microliters of the diluted compounds were poured into a “low binding” assay plate. […] The reaction was initiated by adding ten microliters of a solution containing PDE4. The plate was then incubated under stirring for 1 hour at room temperature. After incubation the reaction was stopped with 50 microlitres of SPA beads, and the reaction was allowed to incubate for another 20 minutes at room temperature before measuring radioactivity using standard instrumentation.
The reaction mixture was prepared by adding 90 ml of H2O to 10 ml of 10× assay buffer (500 mM Tris pH 7.5, 83 mM MgCl2, 17 mM EGTA), and 40 microlitres 1 μCi/μL [3H]-cAMP. SPA beads solution was prepared by adding 500 mg to 28 ml H2O for a final concentration of 20 mg/ml beads and 18 mM zinc sulphate.

The compound `CCN(C)c1nc2sc3c(NCC(=O)NCC4CCCO4)ncnc3c2c2c1CCC(C)(C)C2` (stereo not drawn) [Example 54, N^2-{5-[Ethyl(methyl)amino]-2,2-dimethyl-1,2,3,4-tetrahydropyrimido[4′,5′:4,5]thieno[2,3-c]isoquinolin-8-yl}-N^1-(tetrahydrofuran-2-ylmethyl)glycinamide] gave a pIC50 of 8.00. Compound `CC(C)Cc1nc2sc3c(NCCCN4CCCC4=O)ncnc3c2c2c1CCC(C)(C)C2` [Example 60, 1-{3-[(5-Isobutyl-2,2-dimethyl-1,2,3,4-tetrahydropyrimido[4′,5′:4,5]thieno[2,3-c]isoquinolin-8-yl)amino]propyl}pyrrolidin-2-one] had a pIC50 of 8.32. On to `CC1(C)CCc2c(N3CCCC3)nc3sc4c(NCc5ccncc5)ncnc4c3c2C1` [Example 24, 2,2-Dimethyl-N-(pyridin-4-ylmethyl)-5-pyrrolidin-1-yl-1,2,3,4-tetrahydropyrimido[4′,5′:4,5]thieno[2,3-c]isoquinolin-8-amine], for which the pIC50 was 7.85.

`CCOC(=O)N1CCN(CCNc2ncnc3c2sc2nc(N(C)C)c4c(c23)CC(C)(C)CC4)CC1` [Example 43, Ethyl 4-(2-{[5-(dimethylamino)-2,2-dimethyl-1,2,3,4-tetrahydropyrimido[4′,5′:4,5]thieno[2,3-c]isoquinolin-8-yl]amino}ethyl)piperazine-1-carboxylate] gave a pIC50 of 8.10.

Consider `CC1(C)CCc2c(N3CCCC3)nc3sc4c(NCCN5CCOCC5)ncnc4c3c2C1` [Example 23, 2,2-Dimethyl-N-(2-morpholin-4-ylethyl)-5-pyrrolidin-1-yl-1,2,3,4-tetrahydropyrimido[4′,5′:4,5]thieno[2,3-c]isoquinolin-8-amine], for which the negative-log IC50 (pIC50) is 8.09. On to `CC1(C)CCc2c(N3CCSCC3)nc3sc4c(NCc5ccccn5)ncnc4c3c2C1` [Example 16, 2,2-Dimethyl-N-(pyridin-2-ylmethyl)-5-thiomorpholin-4-yl-1,2,3,4-tetrahydropyrimido[4′,5′:4,5]thieno[2,3-c]isoquinolin-8-amine], for which the pIC50 is 8.52. The result for `CN(C)c1nc2sc3c(NCc4cccnc4)ncnc3c2c2c1CC(C)(C)C2` [Example 79, N^4,N^4,2,2-Tetramethyl-N-(pyridin-3-ylmethyl)-2,3-dihydro-1H-cyclopenta[4′,5′]pyrido[3′,2′:4,5]thieno[3,2-d]pyrimidin-4,7-diamine] reads 8.34; that for `CC1(C)CCc2c(N3CCCC3)nc3sc4c(NCc5cccnc5)ncnc4c3c2C1` [Example 25], 8.82; that for `CC1(C)CCc2c(-c3ccco3)nc3sc4c(NCCN5CCOCC5)ncnc4c3c2C1` [Example 62, 5-(2-Furyl)-2,2-dimethyl-N-(2-morpholin-4-ylethyl)-1,2,3,4-tetrahydropyrimido[4′,5′:4,5]thieno[2,3-c]isoquinolin-8-amine], 8.42.

The record behind these values is patent US20090029955A1, “Pyridothienopyrimidine Derivatives” (priority 2004, published 2009).
